According to patent US9808434B2, “Compound for treating cancer and diabetes” (CITY OF HOPE, priority 2011, dated 2017):
“Also recorded” adds a separate entry of the source.

Legend:
A2058 = experiment: Colony formation assay, A2058; assay type: cell-based, human
Method: Cell survival was evaluated using a standard colony-forming assay. […] After 7 or 10 days, adherent colonies were fixed, stained with 0.5% methylene blue for 30 min and colonies were counted using the Innotech Alpha Imager HP (91).

3T3-L1 cells = experiment: Adipocyte differentiation, Oil Red O staining; assay type: cell-based, mouse; conditions: preadipocytes 7 days in differentiating media (DM) + compound
Method: Two-day post-confluent 3T3-L1 preadipocyte cells were allowed to differentiate for 7 days in the presence of nothing, DM only, DM+ a test compound (COH-SR1, COH-SR2, COH-SR3, COH-SR4, COH-SR7, LR23 or LR59), or DM+ a positive control (TSA, C75, or Apicidin).
3T3-L1 preadipocytes cells were treated with differentiating media (DM) with COH-SR4 (1 μM, 3 μM, or 5 μM) or without for 7 days. […] As used in FIG. 9C, U=undifferentiated, D=differentiated with cocktail media.

PBT028 = experiment: Glioma ATP viability assay, PBT028; assay type: cell-based; conditions: Table 1; 72 hours
Method: Cells of each cell line (U251, U87, PBT-017, PBT018, PBT003 and PBT028) were treated with various concentrations (0˜100 μM) of COH-SR4 for 72 hours. Cell viabilities were determined by ATP viability assays. Data were represented as a ratio to vehicle (DMSO) control, and plotted as mean±SEM (n=12) obtained from 2˜3 experiments (FIG. 34A).

H520 cells = experiment: MTT assay, H520; assay type: cell-based; conditions: Homo sapiens, NCI-H520, 48 h
Method: (§1) Cell density measurements were performed using a hemocytometer to count reproductive cells resistant to staining with trypan blue. Approximately 20,000 cells were plated into each well of 96-well flat-bottomed micro-titer plates. After 12 h or 24 h incubation at 37° C., medium containing either COH-SR4 (ranging 0-200 μM) or elesclomol (ranging 0-20 μM) were added to the cells. After 24 h, 48 h or 96 h incubation, 20 μL of 5 mg/mL MTT were introduced to each well and incubated for 2 h. The plates were centrifuged and medium was decanted. Cells were subsequently dissolved in 100 μl DMSO with gentle shaking for 2 h at room temperature, followed by measurement of OD570 (91).
The effect of COH-SR4 was first examined in a NCI panel of cancer cell lines, the results of which indicated good activity of COH-SR4 towards lung cancer (FIG. 78A). […] Values are presented as mean±SD from two separate determinations with eight replicates each (n=16) (FIG. 78B). […] Standard colony-forming assay was performed and the colonies were counted using Innotech Alpha Imager HP. […] TUNEL assay was performed using Promega fluorescence detection kit and examined using Zeiss LSM 510 META laser-scanning fluorescence microscope with filters 520 and 620 nm. […]

U251 glioma cells = experiment: Combination index with chemotherapy drugs, U251; assay type: cell-based
Method: Effects of combination of COH-SR4 and a chemotherapy drug such as TMZ, SN38, CPT-11, and 5-FU were studied by combination index (CI) theorem and plot using the method described in Chou (“Experimental Design, and Computerized Simulation of Synergism and Antagonism in Drug Combination Studies,” Pharmacological Reviews, Vol. 58, No. 3), which is incorporated herein by reference in its entirety.
COH-SR4 and a chemotherapy drug (TMZ, SN38, CPT-11, or 5-FU) were dissolved in DMSO individually, and then diluted to the appropriate concentration in the same cell culture media before applying to cells of each cell line. After 4 days, the amount of ATP present in the cell lysates were assessed using Progema's CellGlo kit. The CI of each combination of COH-SR4 and the chemotherapy drug was calculated and plotted against the concentration of COH-SR4 for each concentration of the chemotherapy drug used.

A2058 p^0 cells = experiment: Oxygen consumption rate in mitochondrial DNA-depleted cells; assay type: cell-based, human; conditions: compared with wild-type A2058; data not shown
Method: Oxygen consumption rate (OCR), a measure of OxPhos, and extracellular acidification rate (ECAR), a measure of lactate production by glycolysis, were measured using a Seahorse Xf^e96 Flux Analyzers (Seahorse Biosciences, North Billerica, Mass.). Cells were seeded in DMEM media in Seahorse 96-well tissue culture plates at a density of 5×10^3 cells/well and allowed to adhere for 24 h. Prior to the assay, the media was changed to unbuffered DMEM containing 25 mM glucose, 1 mM pyruvate and 1 mM glutamine, with 0.2% fatty acid/endotoxin-free BSA (w/v) (pH 7.4) and the cells were equilibrated for 30 min at 37° C. Test compounds were injected during the assay and OCR and ECAR were measured using 2-3 min measurement periods. Similar sets of experiments were performed in the presence of the mitochondria recoupler agent 6-KCH or the mitochondrial permeability transition (MPT) pore blocker CSA, where each compound was injected into the assay media prior to COH-SR4 or FCCP injection. […] OCR was measured throughout the different injections of the stressors and test compounds (indicated by arrows in the figures).
To verify that COH-SR4 acts directly on mitochondrial respiration, OCR in mitochondrial DNA-depleted (p^0) A2058 cells was measured, as well as freshly isolated mouse liver mitochondria and treated with either COH-SR4 or FCCP.

B16-F0 = experiment: MTT assay, B16-F0; assay type: cell-based; conditions: Mus musculus
Method: as §1
Cells of highly aggressive mouse melanoma cell line B16-F0 or human melanoma cell line Hs600T were incubated with various doses of COH-SR4 (1, 2.5, 5, 10, 25, 50, or 100 μM). The cell viabilities after treatment of 48 hours and 96 hours were measured and summarized in FIGS. 54A and 55A, respectively. […] Data were presented as mean±Standard Deviation from two separate determinations with eight replicate each (n=16).

For O=C(Nc1cc(Cl)cc(Cl)c1)Nc1cc(Cl)cc(Cl)c1 [COH-SR4, 1,3-bis(3,5-dichlorophenyl) urea], the colony formation (A2058; 5 μM) was 43±7%, the colony formation (A2058; 10 μM, vs untreated control) was 37±4% and the “differentiation and accumulation of lipid droplets (Oil Red O staining)” value (3T3-L1 cells) was “dose-dependently inhibited differentiation and accumulation of lipid droplets; also recorded: prevented accumulation of fat droplets”. The IC50 (PBT028) was 2 µM, the IC50 (H520 cells) was 2.4 ± 0.3 µM and the “combination effect (CI) with CPT-11” value (U251 glioma cells; COH-SR4 <0.5 μM + CPT-11 <0.125 μM) was “Synergism”. The “combination effect (CI) with SN-38” value (U251 glioma cells; COH-SR4 <0.5 μM + SN-38 <0.001 μM) was “Synergism”, the “combination effect (CI) with TMZ” value (U251 glioma cells; COH-SR4 <0.5 μM + TMZ 12.5 μM, 4 days) was “Synergism” and the “combination effect (CI) with SN-38” value (U251 glioma cells; COH-SR4 >0.5 μM + SN-38 <0.003 μM) was “Additive effects”. For the same compound, the “combination effect (CI) with TMZ” value (U251 glioma cells; COH-SR4 >0.65 μM + TMZ 100 μM) was “Additive effects”, the “combination effect (CI) with CPT-11” value (U251 glioma cells; COH-SR4 >0.675 μM + CPT-11 >0.5 μM) was “Additive effects” and the “OCR in mitochondrial DNA-depleted cells” value (A2058 p^0 cells) was “failed to increase OCR”. The IC50 (B16-F0; B16F0, 48 h, 48 hours) was roughly 14 µM and the IC50 (B16-F0; B16F0, 96 h, 96 hours) was roughly 5 µM.
